{
  "source": "patent US20240343726A1",
  "about": "“PYRROLOPYRIDINE-3- AND 4-CARBOXAMIDE COMPOSITIONS AND METHODS FOR CELLULAR PROLIFERATION” (The Rockefeller University, priority 2021, published 2024)",
  "data": [
    {"target": "LATS1 kinase (Homo sapiens (Human), UniProt O95835)", "sequence (O95835 589-1130)": "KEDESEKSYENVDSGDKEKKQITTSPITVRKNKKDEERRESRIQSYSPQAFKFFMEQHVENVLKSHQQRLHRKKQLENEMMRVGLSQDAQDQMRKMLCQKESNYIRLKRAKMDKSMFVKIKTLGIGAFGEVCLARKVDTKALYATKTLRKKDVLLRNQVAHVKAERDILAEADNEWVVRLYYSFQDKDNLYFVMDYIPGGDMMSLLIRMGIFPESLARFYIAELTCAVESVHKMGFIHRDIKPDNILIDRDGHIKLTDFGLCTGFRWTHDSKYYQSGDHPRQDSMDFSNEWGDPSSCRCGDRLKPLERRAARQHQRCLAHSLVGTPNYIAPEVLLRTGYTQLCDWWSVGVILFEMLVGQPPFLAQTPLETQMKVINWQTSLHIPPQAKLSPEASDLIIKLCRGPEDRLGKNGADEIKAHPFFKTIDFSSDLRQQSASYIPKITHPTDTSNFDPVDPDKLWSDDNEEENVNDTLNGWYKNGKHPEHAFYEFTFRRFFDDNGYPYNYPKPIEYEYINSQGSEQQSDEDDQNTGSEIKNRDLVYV", "assay": "LATS1 Biochemical HTRF Assay", "settings": "2 mM ATP; read-out: LATS1_HTRF_2 mM ATP IC50", "experimental": "LATS1 Biochemical HTRF Assay\nMgCl2 and [1 mM] DTT. 1× Enzymatic buffer diluted from 5× Enzymatic buffer*. Add 0.5 μL of 20× compound in 100% DMSO. […] MgCl2, [1 mM] DTIT and [5 mg/mL] BSA. 5×ERR prepared from 5× Enzymatic buffer with [25 mg/mL] BSA. Mix plate on plate shaker set at 1,350 rpm for 30 seconds, then centrifuge plate at 1,000 rpm for 1 minute. Incubate for 30 minutes at 25° C. on plate shaker set to 500 rpm. […] STK Substrate 1-biotin* then add 2 μL [10 mM] ATP. Mix plate on plate shaker set at 1,350 rpm for 30 seconds, then centrifuge plate at 1,000 rpm for 1 minute. Incubate for 40 minutes at 25° C. on plate shaker set to 500 rpm. […] Streptavidin-XL665 with 1×STK Antibody-Cryptate*. Mix plate on plate shaker set at 1,350 rpm for 30 seconds, then centrifuge plate at 1,000 rpm for 1 minute. Incubate for 60 minutes at 25° C. on plate shaker set to 500 rpm, covered from light.\n*(Included in Cisbio KinEASE-STK Si HTRF Kit: 62ST1PEC)", "units": {"IC50": "nM"}, "values": [
      {"smiles": "O=C(/N=C1\\SCCCN1c1cccc(O)c1)c1c[nH]c2ncccc12", "note": "[Example 78]", "IC50": 18},
      {"smiles": "Cc1cs/c(=N\\C(=O)c2ccnc3[nH]ccc23)n1CC1CCCCC1", "note": "[Example 52]", "IC50": 12},
      {"smiles": "O=C(/N=C1\\SCCN1c1cc(F)ccc1O)c1c[nH]c2ncccc12", "note": "[Example 75]", "IC50": 1.5},
      {"smiles": "N#Cc1cc2ncccc2n1C(=O)/N=c1\\sccn1-c1ccccc1", "note": "[Example 87]", "IC50": 2140},
      {"smiles": "O=C(/N=C1\\SCCCN1c1ccccc1)c1ccnc2[nH]ccc12", "note": "[Example 29]", "IC50": 1380},
      {"smiles": "Cc1cs/c(=N\\C(=O)c2ccnc3[nH]ccc23)n1C1CCCCC1", "note": "[Example 51]", "IC50": 31},
      {"smiles": "O=C(/N=C1\\SCC(CO)N1Cc1ccccc1)c1c[nH]c2ncccc12", "note": "(stereo not shown) [Example 82]", "IC50": 17},
      {"smiles": "O=C(/N=c1\\sccn1-c1ccccc1C(F)(F)F)c1ccnc2[nH]ccc12", "note": "[Example 48]", "IC50": 1230},
      {"smiles": "O=C(/N=C1\\SCCN1C1CCCC1O)c1c[nH]c2ncccc12", "note": "(stereo not shown) [Example 79, (NZ)—N-[3-(2-hydroxycyclopentyl)thiazolidin-2-ylidene]-1H-pyrrolo[2,3-b]pyridine-3-carboxamide]", "IC50": 221},
      {"smiles": "Cc1cn(-c2ccccc2Cl)/c(=N/C(=O)c2ccnc3[nH]ccc23)s1", "note": "[Example 61]", "IC50": 1230},
      {"smiles": "CC(=O)NCc1cs/c(=N\\C(=O)c2ccnc3[nH]ccc23)n1-c1ccccc1Cl", "note": "[Example 60, (Z)—N-(4-(acetamidomethyl)-3-(2-chlorophenyl)thiazol-2(3H)-ylidene)-1H-pyrrolo[2,3-b]pyridine-4-carboxamide]", "IC50": 330},
      {"smiles": "O=C(/N=c1\\scc(CO)n1Cc1ccccc1)c1ccnc2[nH]ccc12", "note": "[Example 54, (Z)—N-(3-benzyl-4-(hydroxymethyl)thiazol-2(3H)-ylidene)-1H-pyrrolo[2,3-b]pyridine-4-carboxamide]", "IC50": 180},
      {"smiles": "CC1(C)CS/C(=N\\C(=O)c2c[nH]c3ncccc23)N(C2CCCCC2)C1", "note": "[Example 33]", "IC50": 4440},
      {"smiles": "CN(C)CCNC(=O)c1cs/c(=N\\C(=O)c2ccnc3[nH]ccc23)n1Cc1ccccc1", "note": "[Example 57, (Z)-2-((1H-pyrrolo[2,3-b]pyridine-4-carbonyl)imino)-3-benzyl-N-(2-(dimethylamino)ethyl)-2,3-dihydrothiazole-4-carboxamide]", "IC50": 460},
      {"smiles": "CNC(=O)C1CS/C(=N\\C(=O)c2c[nH]c3ncccc23)N1c1ccccc1", "note": "(stereo not shown) [Example 15, (Z)-2-((1H-pyrrolo[2,3-b]pyridine-3-carbonyl)imino)-N-methyl-3-phenylthiazolidine-4-carboxamide]", "IC50": 7.9},
      {"smiles": "CN(C)Cc1cs/c(=N\\C(=O)c2ccnc3[nH]ccc23)n1-c1ccccc1Cl", "note": "[Example 59, (Z)—N-(3-(2-chlorophenyl)-4-((dimethylamino)methyl)thiazol-2(3H)-ylidene)-1H-pyrrolo[2,3-b]pyridine-4-carboxamide]", "IC50": 215},
      {"smiles": "O=C(/N=c1\\sccc(=O)n1-c1ccccc1)c1c[nH]c2ncccc12", "note": "[Example 38]", "IC50": 650},
      {"smiles": "O=C(/N=C1\\SCCN1C1CCC(O)C1)c1c[nH]c2ncccc12", "note": "(stereo not shown) [Example 81, (Z)—N-(3-(3-hydroxycyclopentyl)thiazolidin-2-ylidene)-1H-pyrrolo[2,3-b]pyridine-3-carboxamide]", "IC50": 50},
      {"smiles": "O=C(/N=C1\\SCC(CO)N1c1ccccc1Cl)c1c[nH]c2ncccc12", "note": "(stereo not shown) [Example 80]", "IC50": 1.6},
      {"smiles": "CN(C)C(=O)CN1CCCS/C1=N\\C(=O)c1c[nH]c2ncccc12", "note": "[Example 37, (Z)—N-(3-(2-(Dimethylamino)-2-oxoethyl)-1,3-thiazinan-2-ylidene)-1H-pyrrolo[2,3-b]pyridine-3-carboxamide]", "IC50": 1680},
      {"smiles": "O=C(/N=C1\\SCCCCN1c1ccccc1)c1c[nH]c2ncccc12", "note": "[Example 40, (Z)—N-(3-phenyl-1,3-thiazepan-2-ylidene)-1H-pyrrolo[2,3-b]pyridine-3-carboxamide]", "IC50": 220},
      {"smiles": "O=C(/N=c1\\sccn1C1CCCCC1)c1ccnc2[nH]ccc12", "note": "[Example 49]", "IC50": 505},
      {"smiles": "O=C(/N=C1\\SCCN1c1cccc(F)c1O)c1c[nH]c2ncccc12", "note": "[Example 73]", "IC50": 1.4},
      {"smiles": "O=C(/N=C1\\SCC2CCCCN12)c1c[nH]c2ncccc12", "note": "(stereo not shown) [Example 21]", "IC50": 3780},
      {"smiles": "O=C(/N=c1\\sccn1-c1ccc(Cl)cc1)c1ccnc2[nH]ccc12", "note": "[Example 44]", "IC50": 360},
      {"smiles": "O=C(/N=C1\\SCCN1c1ccc(F)cc1O)c1c[nH]c2ncccc12", "note": "[Example 72]", "IC50": 1.1},
      {"smiles": "CC(=O)N1CCC(N2CCCS/C2=N\\C(=O)c2c[nH]c3ncccc23)CC1", "note": "[Example 31]", "IC50": 2750},
      {"smiles": "O=C(/N=c1\\scc(CO)n1-c1ccccc1Cl)c1ccnc2[nH]ccc12", "note": "[Example 55, (Z)—N-(3-(2-chlorophenyl)-4-(hydroxymethyl)thiazol-2(3H)-ylidene)-1H-pyrrolo[2,3-b]pyridine-4-carboxamide]", "IC50": 68},
      {"smiles": "O=C(/N=C1\\SCCCCN1Cc1ccccc1)c1c[nH]c2ncccc12", "note": "[Example 39, (Z)—N-(3-benzyl-1,3-thiazepan-2-ylidene)-1H-pyrrolo[2,3-b]pyridine-3-carboxamide]", "IC50": 270},
      {"smiles": "O=C(/N=c1\\sccn1-c1cccc(Cl)c1)c1ccnc2[nH]ccc12", "note": "[Example 43]", "IC50": 1670},
      {"smiles": "CCc1ccccc1-n1ccs/c1=N\\C(=O)c1ccnc2[nH]ccc12", "note": "[Example 47]", "IC50": 765},
      {"smiles": "O=C(/N=c1\\sccn1-c1ccc(CO)cc1Cl)c1ccnc2[nH]ccc12", "note": "[Example 50]", "IC50": 2060},
      {"smiles": "COc1ccccc1-n1ccs/c1=N\\C(=O)c1ccnc2[nH]ccc12", "note": "[Example 46]", "IC50": 1770},
      {"smiles": "O=C(/N=C1\\SCC2CNCCN12)c1c[nH]c2ncccc12", "note": "(stereo not shown) [Example 22, (Z)—N-(hexahydro-3H-thiazolo[3,4-a]pyrazin-3-ylidene)-1H-pyrrolo[2,3-b]pyridine-3-carboxamide]", "IC50": 2130},
      {"smiles": "O=C(/N=C1\\SCCN1c1ccc[nH]c1=O)c1c[nH]c2ncccc12", "note": "[Example 76]", "IC50": 191},
      {"smiles": "CN(C)C(=O)c1cs/c(=N\\C(=O)c2ccnc3[nH]ccc23)n1-c1ccccc1Cl", "note": "[Example 56]", "IC50": 2780},
      {"smiles": "O=C(/N=C1\\SCCN1c1c(O)cccc1Cl)c1c[nH]c2ncccc12", "note": "[Example 74, (NZ)—N-[3-(2-chloro-6-hydroxy-phenyl)thiazolidin-2-ylidene]-1H-pyrrolo[2,3-b]pyridine-3-carboxamide]", "IC50": 1.8},
      {"smiles": "O=C(/N=C1\\SCCN1c1cccc(=O)[nH]1)c1c[nH]c2ncccc12", "note": "[Example 77]", "IC50": 4820},
      {"smiles": "O=C(/N=C1\\SCCN1c1c(O)cccc1F)c1c[nH]c2ncccc12", "note": "[Example 70]", "IC50": 0.6},
      {"smiles": "Cc1ccccc1-n1ccs/c1=N\\C(=O)c1ccnc2[nH]ccc12", "note": "[Example 42]", "IC50": 33},
      {"smiles": "O=C(/N=c1\\sc(CO)cn1Cc1ccccc1)c1ccnc2[nH]ccc12", "note": "[Example 62, (Z)—N-(3-benzyl-5-(hydroxymethyl)thiazol-2(3H)-ylidene)-1H-pyrrolo[2,3-b]pyridine-4-carboxamide]", "IC50": 4040},
      {"smiles": "O=C(/N=c1\\sc(CO)cn1-c1ccccc1Cl)c1ccnc2[nH]ccc12", "note": "[Example 63, (Z)—N-(3-(2-chlorophenyl)-5-(hydroxymethyl)thiazol-2(3H)-ylidene)-1H-pyrrolo[2,3-b]pyridine-4-carboxamide]", "IC50": 850},
      {"smiles": "O=C(/N=c1\\sccn1Cc1ccccc1)n1ccc2ncccc21", "note": "[Example 86]", "IC50": 900},
      {"smiles": "Cc1cs/c(=N\\C(=O)c2ccnc3[nH]ccc23)n1Cc1ccccc1", "note": "[Example 53]", "IC50": 220},
      {"smiles": "O=C(/N=C1\\SCC(=O)N1c1ccccc1)c1c[nH]c2ncccc12", "note": "[Example 23]", "IC50": 224},
      {"smiles": "CN(C)C(=O)CN1CCS/C1=N\\C(=O)c1c[nH]c2ncccc12", "note": "[Example 18]", "IC50": 500}
    ]}
  ]
}
